In patent publication US11040031B2, “Pyrazole derivatives as MALT1 inhibitors” (Janssen Pharmaceutica NV, priority 2018, dated 2021) one finds IC50 data, which are given here for 27 compounds.
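Note: fluorogenic LRSR-AMC substrate cleavage by MALT1, 50 min compound preincubation then 4 h reaction at RT, 11-point dilution from 30 µM, scaled between enzyme-free and untreated enzyme controls.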

This experiment addresses T1, full-length MALT1 protein (Strep-MALT1(1-824)-His) (Homo sapiens, UniProt Q9UDY8).
T1 sequence (Q9UDY8 1-824): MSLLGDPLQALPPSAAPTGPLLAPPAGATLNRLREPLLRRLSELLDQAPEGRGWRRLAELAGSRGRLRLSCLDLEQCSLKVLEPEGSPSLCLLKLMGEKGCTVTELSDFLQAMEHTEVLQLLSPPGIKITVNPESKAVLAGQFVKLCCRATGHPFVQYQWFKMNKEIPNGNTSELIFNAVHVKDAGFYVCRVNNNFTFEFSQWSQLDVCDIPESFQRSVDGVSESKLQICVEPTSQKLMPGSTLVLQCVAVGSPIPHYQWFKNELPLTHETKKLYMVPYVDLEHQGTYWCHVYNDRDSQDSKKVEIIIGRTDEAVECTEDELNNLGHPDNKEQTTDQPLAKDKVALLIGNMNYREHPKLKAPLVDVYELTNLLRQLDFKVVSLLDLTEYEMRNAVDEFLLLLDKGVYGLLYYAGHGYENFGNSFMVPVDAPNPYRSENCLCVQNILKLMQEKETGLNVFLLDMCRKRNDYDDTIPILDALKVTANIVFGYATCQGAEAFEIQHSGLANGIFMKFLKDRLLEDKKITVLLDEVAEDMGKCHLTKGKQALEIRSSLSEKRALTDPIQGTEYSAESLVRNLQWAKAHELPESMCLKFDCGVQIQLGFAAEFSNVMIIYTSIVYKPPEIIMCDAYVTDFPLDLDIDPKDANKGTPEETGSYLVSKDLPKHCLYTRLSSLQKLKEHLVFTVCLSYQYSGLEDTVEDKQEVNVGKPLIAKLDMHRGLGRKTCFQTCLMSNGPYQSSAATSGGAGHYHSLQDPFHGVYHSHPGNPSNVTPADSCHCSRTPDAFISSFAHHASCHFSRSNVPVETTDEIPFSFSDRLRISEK
Nature of the experiment: biochemical.
By IC50 is commonly meant the midpoint of a concentration-inhibition curve. Read a low IC50 as greater potency in that assay. `Cc1cnc([C@H]2CCCO2)cc1-n1ncc(C(=O)Nc2cnc(-n3nccn3)c(Cl)c2)c1C(F)(F)F` (single isomer, unassigned) [Cpd 203, (*R)—N-(5-chloro-6-(2H-1,2,3-triazol-2-yl)pyridin-3-yl)-1-(5-methyl-2-(tetrahydrofuran-2-yl)pyridin-4-yl)-5-(trifluoromethyl)-1H-pyrazole-4-carboxamide] gave a concentration for half-maximal inhibition (IC50) of 158 nM.
Take `Cc1cnc([C@@H]2CCCO2)cc1-n1ncc(C(=O)Nc2cnc(-n3nccn3)c(Cl)c2)c1C(F)(F)F` (single isomer, unassigned) [Cpd 204, (*S)—N-(5-chloro-6-(2H-1,2,3-triazol-2-yl)pyridin-3-yl)-1-(5-methyl-2-(tetrahydrofuran-2-yl)pyridin-4-yl)-5-(trifluoromethyl)-1H-pyrazole-4-carboxamide]: the IC50 was determined as 525 nM.
`Cc1cnc([C@H]2COCCO2)cc1-n1ncc(C(=O)Nc2cnc(-n3nccn3)c(Cl)c2)c1C(F)(F)F` (single isomer, unassigned) [Cpd 205, (*S)-1-(2-(1,4-dioxan-2-yl)-5-methylpyridin-4-yl)-N-(5-chloro-6-(2H-1,2,3-triazol-2-yl)pyridin-3-yl)-5-(trifluoromethyl)-1H-pyrazole-4-carboxamide] came in with an IC50 of 1910 nM.
`Cc1cnc([C@@H]2COCCO2)cc1-n1ncc(C(=O)Nc2cnc(-n3nccn3)c(Cl)c2)c1C(F)(F)F` (single isomer, unassigned) [Cpd 206, (*R)-1-(2-(1,4-dioxan-2-yl)-5-methylpyridin-4-yl)-N-(5-chloro-6-(2H-1,2,3-triazol-2-yl)pyridin-3-yl)-5-(trifluoromethyl)-1H-pyrazole-4-carboxamide] had a concentration for half-maximal inhibition (IC50) of 2040 nM.
Compound `O=C(Nc1cnc(-n2nccn2)c(Cl)c1)c1cnn(-c2ccncc2F)c1C(F)(F)F` [Cpd 6, N-(5-Chloro-6-(2H-1,2,3-triazol-2-yl)pyridin-3-yl)-1-(3-fluoropyridin-4-yl)-5-(trifluoromethyl)-1H-pyrazole-4-carboxamide] displayed an IC50 of 832 nM.
For `O=C(Nc1cnc(-n2nccn2)c(Cl)c1)c1cnn(-c2ccccn2)c1C(F)(F)F` [Cpd 8, N-(5-Chloro-6-(2H-1,2,3-triazol-2-yl)pyridin-3-yl)-1-(pyridin-2-yl)-5-(trifluoromethyl)-1H-pyrazole-4-carboxamide], the IC50 is 1230 nM.
In the case of `O=C(Nc1cnc(-n2nccn2)c(Cl)c1)c1cnn(-c2cnccn2)c1C(F)(F)F` [Cpd 9, N-(5-Chloro-6-(2H-1,2,3-triazol-2-yl)pyridin-3-yl)-1-(pyrazin-2-yl)-5-(trifluoromethyl)-1H-pyrazole-4-carboxamide], the concentration for half-maximal inhibition (IC50) came to 2570 nM.
For `O=C(Nc1cnc(-n2nccn2)c(Cl)c1)c1cnn(-c2ncccn2)c1C(F)(F)F` [Cpd 10, N-(5-Chloro-6-(2H-1,2,3-triazol-2-yl)pyridin-3-yl)-1-(pyrimidin-2-yl)-5-(trifluoromethyl)-1H-pyrazole-4-carboxamide] the value was 4370 nM; for `N#Cc1ccc(-n2ncc(C(=O)Nc3cnc(-n4nccn4)c(Cl)c3)c2C(F)(F)F)nc1` [Cpd 11, N-(5-Chloro-6-(2H-1,2,3-triazol-2-yl)pyridin-3-yl)-1-(5-cyanopyridin-2-yl)-5-(trifluoromethyl)-1H-pyrazole-4-carboxamide], 4570 nM.
Take `O=C(Nc1cnc(-n2nccn2)c(Cl)c1)c1cnn(-c2cccnc2)c1C(F)(F)F` [Cpd 12, N-(5-Chloro-6-(2H-1,2,3-triazol-2-yl)pyridin-3-yl)-1-(pyridin-3-yl)-5-(trifluoromethyl)-1H-pyrazole-4-carboxamide]: 1350 nM corresponded to half-maximal inhibition (IC50).
`COc1ccc(-n2ncc(C(=O)Nc3cnc(-n4nccn4)c(Cl)c3)c2C(F)(F)F)cn1` [Cpd 13, N-(5-Chloro-6-(2H-1,2,3-triazol-2-yl)pyridin-3-yl)-1-(6-methoxypyridin-3-yl)-5-(trifluoromethyl)-1H-pyrazole-4-carboxamide] displayed a concentration for half-maximal inhibition (IC50) of 1700 nM.
Take `O=C(Nc1cnc(-n2nccn2)c(Cl)c1)c1cnn(-c2cncnc2)c1C(F)(F)F` [Cpd 15, N-(5-Chloro-6-(2H-1,2,3-triazol-2-yl)pyridin-3-yl)-1-(pyrimidin-5-yl)-5-(trifluoromethyl)-1H-pyrazole-4-carboxamide]: the IC50 was 3470 nM.
For `Cc1cncc(-n2ncc(C(=O)Nc3cnc(-n4nccn4)c(Cl)c3)c2C(F)(F)F)c1` [Cpd 16, N-(5-Chloro-6-(2H-1,2,3-triazol-2-yl)pyridin-3-yl)-1-(5-methylpyridin-3-yl)-5-(trifluoromethyl)-1H-pyrazole-4-carboxamide] the value was 1700 nM; for `N#Cc1cncc(-n2ncc(C(=O)Nc3cnc(-n4nccn4)c(Cl)c3)c2C(F)(F)F)c1` [Cpd 17, N-(5-Chloro-6-(2H-1,2,3-triazol-2-yl)pyridin-3-yl)-1-(5-cyanopyridin-3-yl)-5-(trifluoromethyl)-1H-pyrazole-4-carboxamide], 2090 nM.
As for `Cc1cccc(-n2ncc(C(=O)Nc3cnc(-n4nccn4)c(Cl)c3)c2C(F)(F)F)n1` [Cpd 24, N-(5-chloro-6-(2H-1,2,3-triazol-2-yl)pyridin-3-yl)-1-(6-methylpyridin-2-yl)-5-(trifluoromethyl)-1H-pyrazole-4-carboxamide], the concentration for half-maximal inhibition (IC50) stood at 2090 nM.
`O=C(Nc1cnc(-n2nccn2)c(Cl)c1)c1cnn(-c2ccncc2)c1C(F)F` [Cpd 25, N-(5-chloro-6-(2H-1,2,3-triazol-2-yl)pyridin-3-yl)-5-(difluoromethyl)-1-(pyridin-4-yl)-1H-pyrazole-4-carboxamide] returned a concentration for half-maximal inhibition (IC50) of 2950 nM.
`O=C(Nc1cnc(-n2nccn2)c(Cl)c1)c1cnn(-c2ccccc2)c1F` [Cpd 26, N-(5-chloro-6-(2H-1,2,3-triazol-2-yl)pyridin-3-yl)-5-fluoro-1-phenyl-1H-pyrazole-4-carboxamide] gave a half-maximal inhibitory concentration (IC50) of 7080 nM.
In turn, `Cc1cccc(-n2ncc(C(=O)Nc3cnc(-n4nccn4)c(Cl)c3)c2C(F)(F)F)c1` [Cpd 28, N-(5-chloro-6-(2H-1,2,3-triazol-2-yl)pyridin-3-yl)-1 (m-tolyl)-5-(trifluoromethyl)-1H-pyrazole-4-carboxamide] gave an IC50 of 2460 nM.
Compound `N#Cc1cc(NC(=O)c2cnn(-c3ncc(Br)cc3Cl)c2C(F)(F)F)cnc1-n1nccn1` [Cpd 30, 1-(5-bromo-3-chloropyridin-2-yl)-N-(5-cyano-6-(2H-1,2,3-triazol-2-yl)pyridin-3-yl)-5-(trifluoromethyl)-1H-pyrazole-4-carboxamide] showed a 50% inhibitory concentration (IC50) of 708 nM.
For the compound `N#Cc1cnc(-n2ncc(C(=O)Nc3cnc(-n4nccn4)c(C#N)c3)c2C(F)(F)F)c(Cl)c1` [Cpd 31, 1-(3-chloro-5-cyanopyridin-2-yl)-N-(5-cyano-6-(2H-1,2,3-triazol-2-yl)pyridin-3-yl)-5-(trifluoromethyl)-1H-pyrazole-4-carboxamide], the half-maximal inhibitory concentration (IC50) was 6610 nM.
Regarding `Cc1nccc(-n2ncc(C(=O)Nc3cnc(-n4nccn4)c(C#N)c3)c2C(F)(F)F)c1C#N` [Cpd 33, 1-(3-Cyano-2-methylpyridin-4-yl)-N-(5-cyano-6-(2H-1,2,3-triazol-2-yl)pyridin-3-yl)-5-(trifluoromethyl)-1H-pyrazole-4-carboxamide], the IC50 stood at 513 nM.
As for `N#Cc1cc(NC(=O)c2cnn(-c3ncc(F)cc3C#N)c2C(F)(F)F)cnc1-n1nccn1` [Cpd 35, 1-(3-cyano-5-fluoropyridin-2-yl)-N-(5-cyano-6-(2H-1,2,3-triazol-2-yl)pyridin-3-yl)-5-(trifluoromethyl)-1H-pyrazole-4-carboxamide], the figure is 2240 nM; as for `COc1nccc(-n2ncc(C(=O)Nc3cnc(-n4nccn4)c(C#N)c3)c2C(F)(F)F)c1C` [Cpd 38, N-(5-cyano-6-(2H-1,2,3-triazol-2-yl)pyridin-3-yl)-1-(2-methoxy-3-methylpyridin-4-yl)-5-(trifluoromethyl)-1H-pyrazole-4-carboxamide], 324 nM.
`N#Cc1cc(NC(=O)c2cnn(-c3ccnc(Cl)c3)c2C(F)(F)F)cnc1-n1nccn1` [Cpd 39, 1-(2-chloropyridin-4-yl)-N-(5-cyano-6-(2H-1,2,3-triazol-2-yl)pyridin-3-yl)-5-(trifluoromethyl)-1H-pyrazole-4-carboxamide]: inhibition was half-maximal at 457 nM (IC50).
Turning to `N#Cc1cc(-n2ncc(C(=O)Nc3cnc(-n4nccn4)c(C#N)c3)c2C(F)(F)F)ccn1` [Cpd 40, N-(5-cyano-6-(2H-1,2,3-triazol-2-yl)pyridin-3-yl)-1-(2-cyanopyridin-4-yl)-5-(trifluoromethyl)-1H-pyrazole-4-carboxamide], the concentration for half-maximal inhibition (IC50) was 1910 nM.
Compound `COc1cc(-n2ncc(C(=O)Nc3cnc(-n4nccn4)c(C#N)c3)c2C(F)(F)F)ccn1` [Cpd 41, N-(5-Cyano-6-(2H-1,2,3-triazol-2-yl)pyridin-3-yl)-1-(2-methoxypyridin-4-yl)-5-(trifluoromethyl)-1H-pyrazole-4-carboxamide] had a half-maximal inhibitory concentration (IC50) of 2040 nM.
For `Cc1nccc(-n2ncc(C(=O)Nc3cnc(-n4nccn4)c(C#N)c3)c2C(F)(F)F)c1C` [Cpd 42, N-(5-cyano-6-(2H-1,2,3-triazol-2-yl)pyridin-3-yl)-1-(2,3-dimethylpyridin-4-yl)-5-(trifluoromethyl)-1H-pyrazole-4-carboxamide], half-maximal inhibition (IC50) was put at 182 nM.
